The values that follow come from ChEMBL document CHEMBL1159147, “4-(2-PYRTOYL)-5-phenylthiazoles as novel non-bicyclic reversible inhibitors of the gastric H+/K+-atpase” (Bioorg Med Chem Lett, 1995).

Data set [1] relates to Rattus norvegicus. Briefly: Compound was tested in vivo for its ability to inhibit pentagastrin-stimulated gastric acid secretion in the anesthetized lumen perfused rat at 10 umol/kg iv. It is filed as functional. Particulars: Stomach.
Data set [2] deals with T1, Potassium-transporting ATPase alpha chain 1 (Sus scrofa, UniProt P19156). The data set is described as follows: Ability to inhibit H+/K+ stimulated ATPase activity in lympholised gastric vesicles. Format: tissue-based, Stomach.
T1 sequence (P19156 whole entry): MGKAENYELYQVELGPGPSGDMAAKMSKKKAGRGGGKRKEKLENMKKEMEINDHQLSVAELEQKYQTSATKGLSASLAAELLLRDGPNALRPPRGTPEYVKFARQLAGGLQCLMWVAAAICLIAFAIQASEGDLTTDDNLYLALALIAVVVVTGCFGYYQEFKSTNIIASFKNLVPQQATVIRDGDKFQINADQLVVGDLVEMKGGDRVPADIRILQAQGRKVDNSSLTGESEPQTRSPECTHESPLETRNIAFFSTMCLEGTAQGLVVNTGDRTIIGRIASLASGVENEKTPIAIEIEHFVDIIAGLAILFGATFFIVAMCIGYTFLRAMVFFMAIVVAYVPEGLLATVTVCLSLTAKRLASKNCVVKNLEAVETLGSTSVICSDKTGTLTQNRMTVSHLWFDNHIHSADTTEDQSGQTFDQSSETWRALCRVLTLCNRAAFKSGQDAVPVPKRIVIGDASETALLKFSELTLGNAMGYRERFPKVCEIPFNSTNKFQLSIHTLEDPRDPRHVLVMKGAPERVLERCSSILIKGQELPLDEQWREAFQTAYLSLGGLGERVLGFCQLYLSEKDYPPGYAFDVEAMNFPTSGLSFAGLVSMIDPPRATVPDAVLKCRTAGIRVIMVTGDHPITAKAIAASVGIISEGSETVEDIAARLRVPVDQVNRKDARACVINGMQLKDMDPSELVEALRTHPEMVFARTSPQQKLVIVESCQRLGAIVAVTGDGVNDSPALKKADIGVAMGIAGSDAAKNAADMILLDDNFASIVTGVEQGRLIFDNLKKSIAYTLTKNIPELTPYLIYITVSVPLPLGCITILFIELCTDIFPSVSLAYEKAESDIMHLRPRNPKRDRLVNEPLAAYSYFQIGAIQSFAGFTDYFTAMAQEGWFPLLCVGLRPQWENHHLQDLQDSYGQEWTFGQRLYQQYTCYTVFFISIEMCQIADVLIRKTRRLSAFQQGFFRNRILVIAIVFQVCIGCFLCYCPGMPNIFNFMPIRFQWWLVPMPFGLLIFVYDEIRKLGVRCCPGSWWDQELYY
A short description of data set [3]: Acid dissociation constant was reported. It is filed as ADME.
The target in data set [4] is T1, Potassium-transporting ATPase alpha chain 1. The data set is described as follows: Compound was evaluated for its ability to inhibit K+-stimulated ATPase activity.
Data set [5] in a line: Ability to inhibit Na(+)/K(+)-stimulated ATPase activity in hog kidney. Also on record: species or system Sus scrofa.

SMILES strings stand for the structures.

The compound `CCCc1nc(-c2cccc(NC)n2)c(-c2ccccc2C)s1` returned an inhibition in vivo at 10 µmol/kg in data set [1] of 42%. The same compound yielded a 50% inhibitory concentration (IC50) in data set [2] of 12.5 µM.
As to `CCOC(=O)c1cnc2c(OC)cccc2c1Nc1ccccc1C`, the pKa in data set [3] amounted to 6.7.
The compound `Cc1ccccc1-c1sc(Cc2ccccc2)nc1-c1ccccn1` gave an inhibition in vivo at 10 µmol/kg in data set [1] of 29%. In data set [2], the midpoint of inhibition, the IC50, lay at 9.6 µM.
In data set [1], `CCCc1nc(-c2ccccn2)c(-c2ccccc2)s1` gave an inhibition in vivo at 10 µmol/kg of 21%. In data set [2], this compound had a half-maximal inhibitory concentration (IC50) of 42.3 µM.
For `CCCc1nc(-c2ccccn2)c(-c2ccccc2C)s1`, in data set [1], the inhibition in vivo at 10 µmol/kg is 26%. For the same compound, the half-inhibitory concentration (IC50) in data set [2] is 8.2 µM. Further, the pKa in data set [3] was 4.2.
In data set [1], `Cc1ccccc1N1CCc2cnc3c(C)cccc3c21` gave an inhibition in vivo at 10 µmol/kg of 47%. Further, half-maximal inhibition in data set [2] (IC50) required 0.98 µM.
`CCCc1nc(-c2cccc(N)n2)c(-c2ccccc2C)s1` showed an inhibition in vivo at 10 µmol/kg in data set [1] of 48%. For the same compound, in data set [2], half-maximal inhibition (IC50) was put at 2.9 µM.
On to `Cc1ccccc1-c1nc(-c2ccccn2)c(-c2ccccc2C)s1`, for which the IC50 in data set [2] worked out at 4.9 µM.
`CCCc1nc(-c2cc(N)ccn2)c(-c2ccccc2C)s1` showed an inhibition in vivo at 10 µmol/kg in data set [1] of 36%. In addition, the IC50 in data set [2] amounted to 2.2 µM; in data set [5], 44 µM. For the same compound, in data set [3], the pKa was 8. Moreover, in data set [4], the inhibition constant (Ki) turned out to be 0.838 µM.
